Active and inactive are the calls of the source. The rule behind the calls is not given here.
Species: Rattus norvegicus
Test: Increase in [3H]GABA uptake initial velocity in Wistar rat synaptosomes measured per mg of protein pretreated at 100 uM for 20 mins with combined application of 30 uM NO-711 GAT1 blocker by scintillation counting
Assay type: functional, subcellular
For `NCC(CC(=O)O)C(F)(F)C(F)F` (racemic), the Activity was 27.4 pmol/min/mg.
`CC(C)C[C@H](CN)CC(=O)O` was tested, and the Activity was “inactive”.
For `NC[C@@](O)(CC(=O)O)C(F)(F)F`, the Activity was 27.9 pmol/min/mg.
With `NC[C@@H](CC(=O)O)C(F)(F)F` the Activity was 23.7 pmol/min/mg.

Species: Rattus norvegicus
Test: Increase in [3H]GABA uptake initial velocity in Wistar rat synaptosomes measured per mg of protein pretreated at 100 uM for 20 mins with combined application of 50 uM SNAP5114 GAT3 blocker by scintillation counting
Assay type: functional, subcellular
Work on `NCC(CC(=O)O)C(F)(F)C(F)F` (racemic) yielded an Activity of 125 pmol/min/mg.
Compound `NC[C@@](O)(CC(=O)O)C(F)(F)F` has an Activity of 128 pmol/min/mg.
For `NC[C@@H](CC(=O)O)C(F)(F)F`, the Activity was 120 pmol/min/mg.

Species: Rattus norvegicus
Test: Increase in [3H]GABA uptake initial velocity in Wistar rat synaptosomes measured per mg of protein pretreated at 100 uM for 20 mins by scintillation counting (reference value: 153 +/- 7.7 pmol/min*mg of protein)
Assay type: functional, subcellular
In the case of `NCC(CC(=O)O)C(F)(F)C(F)F` (racemic), the Activity is reported as 188 pmol/min/mg.
Compound `CC(C)C[C@H](CN)CC(=O)O` has an Activity of 182 pmol/min/mg.
With `NC[C@@](O)(CC(=O)O)C(F)(F)F` the Activity was 189 pmol/min/mg.
With `NC[C@@H](CC(=O)O)C(F)(F)F` the Activity was 179 pmol/min/mg.

Species: Rattus norvegicus
Test: Increase in [3H]GABA uptake initial velocity in Wistar rat synaptosomes measured per mg of protein at 100 uM by scintillation counting (reference value: 205.4 +/- 5 pmol/min*mg of protein)
Assay type: functional, subcellular
In the case of `NCC(CC(=O)O)C(F)(F)C(F)F` (racemic), the Activity is reported as 198 pmol/min/mg.
Work on `CC(C)C[C@H](CN)CC(=O)O` yielded an Activity of 211 pmol/min/mg.
`NC[C@@](O)(CC(=O)O)C(F)(F)F` showed an Activity of 194 pmol/min/mg.
For `NC[C@@H](CC(=O)O)C(F)(F)F`, the Activity was 211 pmol/min/mg.

Species: Rattus norvegicus
Test: Increase in [3H]GABA uptake initial velocity in Wistar rat synaptosomes measured per mg of protein at 200 uM by scintillation counting
Assay type: functional, subcellular
With `NCC(CC(=O)O)C(F)(F)C(F)F` (racemic) the Activity was “inactive”.
For `NC[C@@](O)(CC(=O)O)C(F)(F)F`, the Activity was “inactive”.
With `NC[C@@H](CC(=O)O)C(F)(F)F` the Activity was “inactive”.

Species: Rattus norvegicus
Test: Increase in [3H]GABA uptake initial velocity in Wistar rat synaptosomes measured per mg of protein pretreated at 200 uM for 20 mins by scintillation counting
Assay type: functional, subcellular
For `NCC(CC(=O)O)C(F)(F)C(F)F` (racemic), the Activity was “Active”.
For `NC[C@@](O)(CC(=O)O)C(F)(F)F`, the Activity was “Active”.
`NC[C@@H](CC(=O)O)C(F)(F)F` was tested, and the Activity was “Active”.

Reference: ChEMBL document CHEMBL3593185, “Synthesis of new fluorinated analogs of GABA, Pregabalin bioisosteres, and their effects on [(3)H]GABA uptake by rat brain nerve terminals” (Bioorg Med Chem, 2015)
